Source: patent publication US10912301B2, “Herbicide combinations comprising L-glufosinate and indaziflam” (BASF SE, priority 2015, dated 2021)
Where two headings read alike, the source gives them in different places.

What was measured:
[1] = test system: monocotyledonous and dicotyledonous harmful plant species; assay: Post-emergence efficacy of indaziflam alone; assay type: in vivo; conditions: product containing 4 g/L of indaziflam, dose rate 12 g/ha
[2] = test system: Amaranthus retroflexus (AMARE); assay: Greenhouse pot trial, single post-emergence treatment, herbicidal activity rating; assay type: in vivo; conditions: BBCH growth stage 11-12, 12 g/ha indaziflam
Experimental: (§1) In separate pots, biological trials were conducted in the greenhouse under identical conditions (apart from the treatment with the different products P1, P2 and P3 mentioned above). Each pot contained the same soil and the same amount of seeds of each of the following weeds (two monocotyledonous and two dicotyledonous harmful plant species (weed species)):
(§2) The Tables 1 to 6 reflect the observations after certain periods of time, indicated in days (referred to as DAA=days after application) after start of treatment with/application of the respective product P1, P2 or P3 mentioned above, each in the amounts indicated below.
(§3) Indaziflam was used in an amount of 12 g/ha.

Stellaria media (STEME) = assay: as above; assay type: in vivo; conditions: BBCH growth stage 11-12, 12 g/ha indaziflam
Experimental: as §1, §2, §3

[3] = test system: Lolium multiflorum (LOLMU); assay: as above; assay type: in vivo; conditions: BBCH growth stage 11-12, 12 g/ha indaziflam
Experimental: as §1, §2, §3

Poa annua (POAAN) = assay: as above; assay type: in vivo; conditions: BBCH growth stage 11-12, 12 g/ha indaziflam
Experimental: as §1, §2, §3

[4] = test system: monocotyledonous and dicotyledonous harmful plant species; conditions: stated as known; cited from earlier work

Cc1ccc2c(c1)[C@H](Nc1nc(N)nc([C@@H](C)F)n1)[C@@H](C)C2 (mixture of isomers) [indaziflam, N^2-[(1R,2S)-2,3-dihydro-2,6-dimethyl-1H-inden-1-yl]-6-[(1RS)-1-fluoroethyl]-1,3,5-triazine-2,4-diamine]
post-emergence efficacy [1]: only very limited post-emergence efficacy | Ratings of herbicidal activity: Regrowth [2]: very weak herbicidal effect starting on day 7 after treatment | Ratings of herbicidal activity: Regrowth (Stellaria media (STEME)): no herbicidal effect | Ratings of herbicidal activity: Regrowth [3]: no herbicidal effect | Ratings of herbicidal activity: Regrowth (Poa annua (POAAN)): no herbicidal effect | post-emergence efficacy [4]: insufficient post-emergence efficacy
